The target of one assay is T1, BCL-xL proteins (Homo sapiens, UniProt Q07817).
T1 construct: degradation effect on the BCL-xL proteins in MOLT-4 cells; host or cells: MOLT-4
The assay is described as follows: BCL-xL degradation activity in MOLT-4 cells (western blot, 16 h). The format is cell-based. The protocol: MOLT-4 cells are acute lymphoblastic leukemia cell lines in humans. The cells were purchased from ATCC. Culture conditions: RPMI-1640+10% FBS+1% penicillin-streptomycin solution. The cells were cultured in a 37° C., 5% CO2 incubator. The cells were plated in a 12-well plate, with 2×10^5 cells/well. After plating, compounds at different concentrations were added and cultured in a 37° C., 5% CO2 incubator for 16 h. After the completion of culture, the cells were harvested and RIPA lysis buffer (beyotime, Cat. P0013B) was added. The cells were lysed on ice for 15 minutes and centrifuged at 12000 rpm at 4° C. for 10 minutes. The supernatant protein samples were collected and the protein was quantified by using the BCA kit (Beyotime, Cat. P0009). Then the protein was diluted to 0.8 mg/mL. The expressions of BCL-xL (CST, Cat. 2764S), BCL-2 (CST, Cat. 15071S) and the internal reference β-actin (CST, Cat. 3700S) were detected using a fully automated western blot quantitative analyzer (Proteinsimple). The expression level of BCL-xL or BCL-2 relative to the internal reference was calculated by using Compass software, and the DC50 value was calculated by using GraphPad Prism 8.0 software according to formula (1), wherein the Proteinadministration denoted the relative expression level of BCL-xL or BCL-2 in administration groups at different doses, and the Proteinvehicle denoted the relative expression level of BCL-xL or BCL-2 in the vehicle control group.
Protein %=Proteinadministration/Proteinvehicle×100% formula (1)
For orientation: A western blot detects proteins with antibodies after separation by electrophoresis.

The subject of a further assay is MOLT-4 cells. Kind of assay: Cell proliferation activity in MOLT-4 cells (72 h, cell viability luminescence). The class given is cell-based, human. The settings on record: Homo sapiens, read-out: IC50 for the inhibition of MOLT-4 cell proliferation. The essentials:
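Human acute lymphoblastic leukemia cells were seeded at 5×10^3 cells/well in RPMI-1640 with 10% FBS. They were treated with serially varied compound concentrations for 72 h at 37° C., 5% CO2. A luminescent viability reagent was used for read-out. IC50 was derived relative to vehicle control; maximum inhibition was the inhibition rate at the highest concentration.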

From patent US20240408085A1, “COMPOUND FOR DEGRADATION OF BCL-2 FAMILY PROTEINS AND MEDICAL APPLICATION THEREOF” (XIZANG HAISCO PHARMACEUTICAL CO., LTD., priority 2021, published 2024) come the findings set out here.

As usually defined, the DC50 is the concentration giving 50% degradation.

T1 sequence (Q07817 whole entry): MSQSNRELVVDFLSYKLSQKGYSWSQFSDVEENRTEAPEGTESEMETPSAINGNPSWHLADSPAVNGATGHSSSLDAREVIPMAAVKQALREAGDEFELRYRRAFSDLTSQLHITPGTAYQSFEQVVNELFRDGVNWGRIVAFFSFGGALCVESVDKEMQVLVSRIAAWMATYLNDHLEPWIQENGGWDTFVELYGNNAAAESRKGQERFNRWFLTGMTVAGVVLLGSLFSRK

Take `Cc1ncsc1-c1ccc([C@H](C)NC(=O)[C@@H]2C[C@@H](O)CN2C(=O)[C@@H](NC(=O)CCCC(=O)N2C[C@H]3CN(CC[C@H](CSc4ccccc4)Nc4ccc(S(=O)(=O)NC(=O)c5ccc(N6CCN(CC7=C(c8ccc(Cl)cc8)CCC(C)(C)C7)CC6)cc5)cc4S(=O)(=O)C(F)(F)F)C[C@H]3C2)C(C)(C)C)cc1` [Compound 15, cis-(2S,4R)-1-((S)-2-(5-(5-((R)-3-((4-(N-(4-(4-((4′-chloro-4,4-dimethyl-3,4,5,6-tetrahydro-[1,1′-biphenyl]-2-yl)methyl)piperazin-1-yl)benzoyl)sulfamoyl)-2-((trifluoromethyl)sulfonyl)phenyl)amino)-4-(phenylthio)butyl)hexahydropyrrolo[3,4-c]pyrrol-2(1H)-yl)-5-oxopentanamido)-3,3-dimethylbutanoyl)-4-hydroxy-N—((S)-1-(4-(4-methylthiazol-5-yl)phenyl)ethyl)pyrrolidine-2-carboxamide]: the half-maximal degradation concentration (DC50) on BCL-xL proteins worked out at 3.6 nM. Also, the IC50 with MOLT-4 cells is below 500 nM.

In the case of `Cc1ncsc1-c1ccc([C@H](C)NC(=O)[C@@H]2C[C@@H](O)CN2C(=O)[C@@H](NC(=O)CCCCCC(=O)N2C[C@H]3CN(CC[C@H](CSc4ccccc4)Nc4ccc(S(=O)(=O)NC(=O)c5ccc(N6CCN(CC7=C(c8ccc(Cl)cc8)CCC(C)(C)C7)CC6)cc5)cc4S(=O)(=O)C(F)(F)F)C[C@H]3C2)C(C)(C)C)cc1` [Compound 8, cis-(2S,4R)-1-((2S)-2-(7-(5-((R)-3-((4-(N-(4-(4-((4′-chloro-4,4-dimethyl-3,4,5,6-tetrahydro-[1,1′-biphenyl]-2-yl)methyl)piperazin-1-yl)benzoyl)sulfamoyl)-2-((trifluoromethyl)sulfonyl)phenyl)amino)-4-(phenylthio)butyl)hexahydropyrrolo[3,4-c]pyrrol-2(1H)-yl)-7-oxoheptanamido)-3,3-dimethylbutanoyl)-4-hydroxy-N—((S)-1-(4-(4-methylthiazol-5-yl)phenyl)ethyl)pyrrolidine-2-carboxamide], half-maximal degradation on BCL-xL proteins (DC50) was put at 8.8 nM. For the same molecule, in the assay with MOLT-4 cells, the IC50 was below 500 nM.

As to `Cc1ncsc1-c1ccc([C@H](C)NC(=O)[C@@H]2C[C@@H](O)CN2C(=O)[C@@H](NC(=O)CCCCCC(=O)N2C[C@@H]3C[C@H]2CN3CC[C@H](CSc2ccccc2)Nc2ccc(S(=O)(=O)NC(=O)c3ccc(N4CCN(CC5=C(c6ccc(Cl)cc6)CCC(C)(C)C5)CC4)cc3)cc2S(=O)(=O)C(F)(F)F)C(C)(C)C)cc1` [Compound 13, (2S,4R)-1-((S)-2-(7-((1S,4S)-5-((R)-3-((4-(N-(4-(4-((4′-chloro-4,4-dimethyl-3,4,5,6-tetrahydro-[1,1′-biphenyl]-2-yl)methyl)piperazin-1-yl)benzoyl)sulfamoyl)-2-((trifluoromethyl)sulfonyl)phenyl)amino)-4-(phenylthio)butyl)-2,5-diazabicyclo[2.2.1]heptan-2-yl)-7-oxoheptanamido)-3,3-dimethylbutanoyl)-4-hydroxy-N—((S)-1-(4-(4-methylthiazol-5-yl)phenyl)ethyl)pyrrolidine-2-carboxamide], in the assay on MOLT-4 cells, the IC50 was below 500 nM.

For the molecule `Cc1ncsc1-c1ccc([C@H](C)NC(=O)[C@@H]2C[C@@H](O)CN2C(=O)[C@@H](NC(=O)CCCCCC(=O)N2CCC3(CC2)CN(CC[C@H](CSc2ccccc2)Nc2ccc(S(=O)(=O)NC(=O)c4ccc(N5CCN(CC6=C(c7ccc(Cl)cc7)CCC(C)(C)C6)CC5)cc4)cc2S(=O)(=O)C(F)(F)F)C3)C(C)(C)C)cc1` [Trifluoroacetate of compound 9, (2S,4R)-1-((S)-2-(7-(2-((R)-3-((4-(N-(4-(4-((4′-chloro-4,4-dimethyl-3,4,5,6-tetrahydro-[1,1′-biphenyl]-2-yl)methyl)piperazin-1-yl)benzoyl)sulfamoyl)-2-((trifluoromethyl)sulfonyl)phenyl)amino)-4-(phenylthio)butyl)-2,7-diazaspiro[3.5]nonan-7-yl)-7-oxoheptanamido)-3,3-dimethylbutanoyl)-4-hydroxy-N—((S)-1-(4-(4-methylthiazol-5-yl)phenyl)ethyl)pyrrolidine-2-carboxamide], the IC50 with MOLT-4 cells was below 500 nM.

On to `Cc1ncsc1-c1ccc([C@H](C)NC(=O)[C@@H]2C[C@@H](O)CN2C(=O)[C@@H](NC(=O)CCCCCCC(=O)N2C[C@@H]3C[C@H]2CN3CC[C@H](CSc2ccccc2)Nc2ccc(S(=O)(=O)NC(=O)c3ccc(N4CCN(CC5=C(c6ccc(Cl)cc6F)CCCCC5)CC4)cc3)cc2S(=O)(=O)C(F)(F)F)C(C)(C)C)cc1` [Compound 38, (2S,4R)-1-((S)-2-(8-((1S,4S)-5-((R)-3-((4-(N-(4-(4-((2-(4-chloro-2-fluorophenyl)cyclohept-1-en-1-yl)methyl)piperazin-1-yl)benzoyl)sulfamoyl)-2-((trifluoromethyl)sulfonyl)phenyl)amino)-4-(phenylthio)butyl)-2,5-diazabicyclo[2.2.1]heptan-2-yl)-8-oxooctanamido)-3,3-dimethylbutanoyl)-4-hydroxy-N—((S)-1-(4-(4-methylthiazol-5-yl)phenyl)ethyl)pyrrolidine-2-carboxamide], for which the IC50 in the assay on MOLT-4 cells is below 500 nM.

On to `Cc1ncsc1-c1ccc([C@H](C)NC(=O)[C@@H]2C[C@@H](O)CN2C(=O)[C@@H](NC(=O)CCCCCC(=O)N2C[C@@H]3C[C@H]2CN3CC[C@H](CSc2ccccc2)Nc2ccc(S(=O)(=O)NC(=O)c3ccc(N4CCN(CC5=C(c6ccc(Cl)cc6F)CCCCC5)CC4)cc3)cc2S(=O)(=O)C(F)(F)F)C(C)(C)C)cc1` [Compound 37, (2S,4R)-1-((S)-2-(7-((1S,4S)-5-((R)-3-((4-(N-(4-(4-((2-(4-chloro-2-fluorophenyl)cyclohept-1-en-1-yl)methyl)piperazin-1-yl)benzoyl)sulfamoyl)-2-((trifluoromethyl)sulfonyl)phenyl)amino)-4-(phenylthio)butyl)-2,5-diazabicyclo[2.2.1]heptan-2-yl)-7-oxoheptanamido)-3,3-dimethylbutanoyl)-4-hydroxy-N—((S)-1-(4-(4-methylthiazol-5-yl)phenyl)ethyl)pyrrolidine-2-carboxamide], for which the IC50 in the assay on MOLT-4 cells is below 500 nM.

On to `O=C1CCC(N2C(=O)c3ccc(N4CCC(CN5CCN(CC[C@H](CSc6ccccc6)Nc6ccc(S(=O)(=O)NC(=O)c7ccc(N8CCN(CC9=C(c%10ccc(Cl)cc%10)CCCCC9)CC8)cc7)cc6S(=O)(=O)C(F)(F)F)CC5)CC4)cc3C2=O)C(=O)N1` (stereo partly drawn) [Compound 45, 4-(4-((2-(4-chlorophenyl)cyclohept-1-en-1-yl)methyl)piperazin-1-yl)-N-((4-(((2R)-4-(4-((1-(2-(2,6-dioxopiperidin-3-yl)-1,3-dioxoisoindolin-5-yl)piperidin-4-yl)methyl)piperazin-1-yl)-1-(phenylthio)butan-2-yl)amino)-3-((trifluoromethyl)sulfonyl)phenyl)sulfonyl)benzamide], for which the IC50 in the assay on MOLT-4 cells was below 500 nM.
